In US4676822A, “Fluid fertilizers containing thiophosphoryl triamide” (Tennessee Valley Authority, priority 1986, dated 1987):
Values joined by “and” are separate entries in the source; they are usually repeats but may differ in a detail not shown here. Equal entries are not always repeated.

Experiments:
[1] = 25° C., water partial pressure 12.73 mm of Hg; cited from earlier work
[2] = Stability of TPTA in solid mixtures with urea (HPLC); assay type: physicochemical; conditions: solid 90% urea-10% TPTA, P(H2O) 12.73 mm Hg
Protocol: Solid samples (0.25 g) of urea-TPTA mixtures (90 weight percent urea-10 weight precent TPTA) were weighed into a 10-mL beaker, carefully spread into an even layer in the bottom of the beaker, and heated in a forced draft oven at temperatures of 42°, 50°, and 60° C. Samples were contained in desiccators inside the oven, each desiccator conataining a sodium hydroxide solution to yield a partial pressure of water of 12.73 mm Hg at the temperature employed. After heating, the samples were analyzed by High Performance Liquid Chromatography (HPLC) to determine the percent of the original TPTA remaining.
The calculated decomposition rate for 25° C., which was determined from an Arrhenius plot of the 42°, 50°, and 60° C. data are also illustrated in FIG. 2, supra. From a perusal of FIG. 2 it is clearly evident that the shelf life of urea-TPTA mixtures is of extremely short duration.

[3] = Stability of TPTA in UAN (36-0-0) at 25° C. (HPLC); assay type: physicochemical; conditions: for % original TPTA remaining: UAN (36-0-0)
Protocol: A sample containing 1 weight percent TPTA was prepared by dissolving 1 g of TPTA in 99 g of 36-0-0 having the composition given in Table I, supra, and an initial pH of 7.4. The sample was maintained at room temperature (25° C.) and analyzed periodically for TPTA by HPLC.
The results of this kinetic study are given in Table V supra, and as noted supra, plotted in FIG. 4 along with the first-order rate equation (solid line in FIG. 4) which was determined by linear regression.

[4] = tested on: urease; assay: Urease inhibition tests with TPTA and PPDA in fluid fertilizers, banded soil system (urease-active Hastings silt loam); assay type: biochemical; conditions: for average % urea unhydrolyzed, 3 days / % urea unhydrolyzed, 3 days: 3 days incubation at 25° C.; for average % urea unhydrolyzed, 3 days / average % urea unhydrolyzed, 6 days: average of A and B samples; for % urea unhydrolyzed, 3 days / % urea unhydrolyzed, 6 days: single sample; for average % urea unhydrolyzed, 6 days / % urea unhydrolyzed, 6 days: 6 days incubation at 25° C.
Protocol: Samples of UAN (31-0-0), 1 g, and (36-0-0), 0.66 g containing approximately 0.38 g urea and 0.041 g of TPTA were prepared by dissolving solid TPTA in 31-0-0 and 36-0-0 of the compositions shown in Table I, supra. Identical samples containing PPDA and without either inhibitor were prepared to serve as references for purposes of data comparison.
Urease-active soil (Hastings silt loam) was moistened to a moisture content of 20 percent and preincubated at room temperature for two days. Plexiglass containers (6×6×6 cm) were one-half filled with soil and packed to a bulk density of 1.0 g/cm^3. The 31-0-0 and 36-0-0 samples containing TPTA and PPDA as well as samples containing no inhibitor were distributed evenly in a narrow band 6 cm along the soil surface. The containers were filled with soil and again packed to a bulk density of 1.0 g/cm^3. The containers were incubated at 25° C. for the desired reaction period. After incubation the soil from each container was thoroughly mixed, and a 10-g sample was extracted with 100 mL of 2M KCl containing 5 ppm phenylmercuric acetate to prevent urea hydrolysis during handling [L. A. Douglass and J. M. Bremner, Soil Sci. Soc. Am. Proc. 34, 859-862 (1970)]. The urea in the extracts was determined colorimetrically as a measure of unhydrolyzed urea. The results of three-day and six-day incubation tests are illustrated in Table II infra; and as noted supra, plotted in FIG. 1.

[5] = compared with PPDA; cited from earlier work

Compound: NP(N)(N)=S [TPTA, thiophosphoryl triamide]
- reaction half-life in solid mixtures with urea [1]: 1.6 days
- % of original TPTA remaining ([2]; 42° C., heating time 0.00 hr): 100.00%
- % of original TPTA remaining ([2]; 42° C., heating time 2.00 hr): 94.78%
- % of original TPTA remaining ([2]; 42° C., heating time 4.00 hr): 83.48%
- % of original TPTA remaining ([2]; 42° C., heating time 5.00 hr): 79.80%
- % of original TPTA remaining ([2]; 42° C., heating time 7.00 hr): 60.03%
- % of original TPTA remaining ([2]; 42° C., heating time 9.0 hr): 53.44%
- % of original TPTA remaining ([2]; 42° C., heating time 9.75 hr): 42.06%
- % of original TPTA remaining ([2]; 42° C., heating time 14.25 hr): 30.69%
- % of original TPTA remaining ([2]; 42° C., heating time 16.00 hr): 8.69%
- % of original TPTA remaining ([2]; 42° C., heating time 18.00 hr): 5.11%
- % of original TPTA remaining ([2]; 50° C., heating time 0.00 hr): 100.00%
- % of original TPTA remaining ([2]; 50° C., heating time 1.01 hr): 97.17%
- % of original TPTA remaining ([2]; 50° C., heating time 2.00 hr): 93.80%
- % of original TPTA remaining ([2]; 50° C., heating time 3.00 hr): 85.92%
- % of original TPTA remaining ([2]; 50° C., heating time 4.00 hr): 71.31%
- % of original TPTA remaining ([2]; 50° C., heating time 5.00 hr): 53.40%
- % of original TPTA remaining ([2]; 50° C., heating time 6.00 hr): 34.26%
- % of original TPTA remaining ([2]; 50° C., heating time 7.00 hr): 23.40%
- % of original TPTA remaining ([2]; 50° C., heating time 8.00 hr): 10.56%
- % of original TPTA remaining ([2]; 60° C., heating time 0.00 hr): 100.00%
- % of original TPTA remaining ([2]; 60° C., heating time 1.00 hr): 94.07%
- % of original TPTA remaining ([2]; 60° C., heating time 2.00 hr): 71.98%
- % of original TPTA remaining ([2]; 60° C., heating time 3.00 hr): 32.26%
- % of original TPTA remaining ([2]; 60° C., heating time 4.00 hr): 3.46%
- % of original TPTA remaining ([2]; 60° C., heating time 5.00 hr): 0.00%
- % of original TPTA remaining ([2]; 60° C., heating time 6.00 hr): 0.00%
- reaction half-life in the 36-0-0 solution ([3]; 1 wt % TPTA, initial pH 7.4, first-order): 43 days
- % original TPTA remaining ([3]; time 0.00 days): 100.00%
- % original TPTA remaining ([3]; time 1.22 days): 100.00%
- % original TPTA remaining ([3]; time 5.22 days): 93.60%
- % original TPTA remaining ([3]; time 7.13 days): 97.15%
- % original TPTA remaining ([3]; time 9.09 days): 81.12%
- % original TPTA remaining ([3]; time 12.07 days): 82.21%
- % original TPTA remaining ([3]; time 14.22 days): 84.30%
- % original TPTA remaining ([3]; time 16.01 days, 23054.4 min): 79.90% and 73.86%
- % original TPTA remaining ([3]; time 20.05 days): 70.87%
- % original TPTA remaining ([3]; time 26.05 days): 72.43%
- % original TPTA remaining ([3]; time 40.17 days): 43.14%
- % original TPTA remaining ([3]; time 47.14 days): 42.94%
- % original TPTA remaining ([3]; time 61.08 days): 32.25%
- % original TPTA remaining ([3]; time 64.99 days): 41.41%
- % original TPTA remaining ([3]; time 71.70 days): 31.14%
- % original TPTA remaining ([3]; time 82.71 days, 119102 min): 29.60%
- % original TPTA remaining ([3]; time 90.71 days, 130622 min): 20.67%
- % original TPTA remaining ([3]; time 96.75 days): 25.07%
- % original TPTA remaining ([3]; time 103.71 days): 21.73%
- % original TPTA remaining ([3]; time 111.71 days): 13.09%
- average % urea unhydrolyzed, 3 days ([4]; UAN (31-0-0)): 97.90%
- % urea unhydrolyzed, 3 days ([4]; UAN (31-0-0)): 101.90% and 93.89%
- average % urea unhydrolyzed, 6 days ([4]; UAN (31-0-0)): 48.48%
- % urea unhydrolyzed, 6 days ([4]; UAN (31-0-0)): 47.75% and 49.21%
- average % urea unhydrolyzed, 3 days ([4]; UAN (36-0-0)): 88% and 87.63%
- % urea unhydrolyzed, 3 days ([4]; UAN (36-0-0)): 91.03% and 84.24%
- average % urea unhydrolyzed, 6 days ([4]; UAN (36-0-0)): 47.82% and 48%
- % urea unhydrolyzed, 6 days ([4]; UAN (36-0-0)): 44.37% and 51.28%
- amount of unhydrolyzed urea in the soil relative to PPDA treatment ([4]; after six days): approximately four times that of the PPDA treatment
- stability in urea melt [5]: substantially more stable in urea melt than PPDA
